Data set [1] relates to rabbit corneas incubated with f-MLP-stimulated autologous macrophages. Nature of the data set: In vitro protection of whole corneas against ROS from f-MLP-stimulated autologous rabbit macrophages. The class given is cell-based. As to conditions: 10^−5 M pirenoxine, 10^−7 M f-MLP stimulated macrophages, two hours at 37° C. How it is done: In order to evaluate the inhibition exerted by pirenoxine against the oxidizing activity of macrophage produced ROS at level of the cornea, the following procedure was carried out: (a) broncho-alveolar washing of the rabbit to obtain the macrophages; (b) abstraction of the cornea from the rabbit eye; (c) incubation of the corneas with 10^−7 M f-MLP stimulated or not stimulated macrophages (800000 cells/well) for two hours at 37° C., 5 % CO2 in presence and in absence of 10^−5 M pirenoxine; (d) separation and homogenization of the epithelial and endothelial corneal cells and subsequent determination of fluorescence as described in b, c, d and f steps of the above methodology.

Data set [2] relates to epithelium and endothelium homogenates of rabbit corneas. The experiment in a line: In vitro Fe(III)-ascorbic acid induced lipid peroxidation in epithelium and endothelium homogenates of rabbit corneas. The class given is biochemical. The note with it: homogenate + 10 μM FeCl3 and ascorbic acid, 27° C., 30 minutes, 10^−5 M pirenoxine; mean ± SEM. The text has this:
The experimental procedure for the evaluation of the inhibiting action against the lipid-peroxidation exerted by pirenoxine in cornea epithelial and endothelial cells made use of Fe(III)-ascorbic acid system to induce the peroxidative phenomenon. The oxidative attack on membrane lipids was confirmed by the spectrophotometric determinations of both the conjugated dienes and fluorescent lipid-soluble substances which, as known, are generated by the oxidative degradation of lipid molecules.
Used experimental procedure included the following steps: a) abstraction of the cornea from the eye of male pigmented rabbits suitably selected and prepared for the study; b) incubation of the latter in 100 μM phosphate buffer, pH 7,5, in the presence of 1000 U collagenase and 5 μM CaCl2 for 20 hours at 37° C.; c) centrifugation at 35000 rpm at 0° C. for 10 minutes and washings of the sediment with phosphate buffer; d) homogenization of the cellular sediment in 1 ml of buffer, pH 7,4 (10% w/v); e) incubation of a suitable homogenate aliquot with 10 μM FeCl3 and ascorbic acid in phosphate buffer, pH 7,4, at 27° C. for 30 minutes in presence and in absence of 10^−5 M pirenoxine; f) extraction of the lipid-soluble substances using chloroform/methanol mixture (2:1 v/v). […]

In the next data set the test system is rabbit corneas. The experiment in a line: In vivo effect on rabbit corneas after intrastromal injection of UV irradiated ferritin. As to conditions: two drops of 0,005% pirenoxine every hour 8 times a day over 4 days, corneas at 5th day. On the procedure: (a) rabbits were anaesthetized by low pentobarbital doses (20 mg/kg); (b) 25 μl of 50 μM ferritin in 0,15 M NaCl were injected in the stroma of the cornea by a 0,33×13 mm/29G insulin syringe whereas the controls were treated with 25 μl physiological solution; (c) in the eyes every hour two drops (1 drop=30 μl) of 0,005% pirenoxine in 0,145 M NaCl 8 times a day over 4 days were instilled, whereas the controls were treated only with the solvent, in the same amount and frequency; (d) at the 5th day the animals were sacrificed using a pentobarbital overdose (100 mg/kg); (e) the corneas were abstracted and the tissue cells separated and collected according to the procedure described in the ex vivo experiment; (f) the conjugated dienes and fluorescent soluble lipid contained in suitable homogenate aliquots were determined.
In vivo conjugated diene and lipid soluble fluorescence substance formation in corneas 5 days after the rabbit eyes were submitted to intrastromal injection of UV-irradiated ferritin and topical instillation of pirenoxine solution (2 drops every hour for 8 hr over 4 days)

Data set [3] concerns epithelial corneal cells (SIRC). Nature of the data set: In vitro protection of UV312 irradiated epithelial corneal cells (SIRC). The class given is cell-based. The note with it: for Lipid-soluble fluorescent substances, U/mg protein / Lipid-soluble fluorescent substances, U/well: UV312 80 mJ/cm^2, 10^−5 pirenoxine, 17 hours at 37° C. On the procedure:
The protective effect of pirenoxine on epithelial comeal cells (SIRC) irradiated for 36″ using UV312 light (80 mJ/cm^2), according to the following procedure: (a) the comeal cells were plated in 35 mm diameter wells; (b) at 80% confluency the cells were contacted with a medium at low (0,2%) serum content to inhibit the proliferation thereof during the experiment (c) the cells were irradiated with UV light in presence and in absence of 10^−5 pirenoxine, incubated at 37° C. for 17 hours and homogenized in 10 mM f) phosphate buffer, pH 7,4; (d) the lipid-soluble fluorescent substances and the proteins contained in suitable homogenate aliquots were determined.

For data set [4] the following is noted: reconstituted aqueous solution, ambient temperature; cited from earlier work.

In the case of `O=C(O)c1cc(O)c2c3nc4ccccc4oc-3cc(=O)c2n1` [pirenoxine, 1-hydroxy-5-oxo-5H-pyrido-[3,2a]-phenoxazin-3-carboxylic acid], the “Induced fluorescence of lipid soluble substances (FIG. 1)” value in data set [1] was “remarkably lower than the controls and are comparable to those of normal corneas (basal values)”. For the same compound, in data set [2], the Conjugated dienes was determined as 2.77 ± 0.07 nmol/hemicornea and the “Fluorescence (fluorescent lipid-soluble substances)” value is on record as 5.22 ± 0.13 U/hemicornea. Moreover, in the data set on rabbit corneas, the Conjugated diene stood at 1.7 Nmoles/hemicornea and the Fluorescence was found to be 4.4 Unit/hemicornea. In data set [3] (Cells 14/01), the “Lipid-soluble fluorescent substances, U/mg protein” value was 2.76 U/mg protein and the “Lipid-soluble fluorescent substances, U/well” value was found to be 0.92 U/well. In data set [3] (Cells 17/12), the “Lipid-soluble fluorescent substances, U/mg protein” value was determined as 9.08 U/mg protein and the “Lipid-soluble fluorescent substances, U/well” value was 3.66 U/well. Further, in data set [3] (Cells 20/12), the “Lipid-soluble fluorescent substances, U/mg protein” value is 7.35 U/mg protein and the “Lipid-soluble fluorescent substances, U/well” value is 1.8 U/well. The “Lipid-soluble fluorescent substances relative to irradiated cells not protected by pirenoxine” value in data set [3] (UV312 irradiation, 10^−5 pirenoxine) was “notably lower (about two and half times)”. Besides, the “Storage time of reconstituted solution without degradation” value in data set [4] is reported as “about two weeks without degradation”.

These data come from patent US6610686B1, “Use of pirenoxine for the protection of corneal tissues in photokeractomy” (Ausimont S.p.A., priority 1999, dated 2003).
